This note sets out measurements from patent publication US20250171437A1 (Agios Pharmaceuticals,Inc., priority 2022, published 2025).

The first test concerns the target T1, human PAH with the R408W mutation (A375 R408W cells) (Homo sapiens, UniProt P00439, R408W).
T1 construct: expressed in transfected cells
T1 sequence (P00439 1-452 R408W): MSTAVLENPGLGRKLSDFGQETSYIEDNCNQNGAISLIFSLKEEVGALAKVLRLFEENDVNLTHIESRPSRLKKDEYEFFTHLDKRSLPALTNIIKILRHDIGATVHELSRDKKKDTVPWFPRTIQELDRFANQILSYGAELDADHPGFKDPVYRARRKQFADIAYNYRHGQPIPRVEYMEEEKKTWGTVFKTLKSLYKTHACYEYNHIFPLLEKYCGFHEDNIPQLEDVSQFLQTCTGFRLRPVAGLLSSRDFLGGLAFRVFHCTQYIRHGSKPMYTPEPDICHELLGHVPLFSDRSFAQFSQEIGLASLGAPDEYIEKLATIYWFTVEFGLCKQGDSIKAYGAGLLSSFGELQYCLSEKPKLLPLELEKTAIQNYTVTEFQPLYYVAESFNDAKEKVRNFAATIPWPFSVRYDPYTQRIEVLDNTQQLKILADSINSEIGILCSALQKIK
The experiment in a line: Cell Based Phenylalanine Flux Assay. The following applies: A375 R408W cells; 24 hrs with compound, then 20 μM sepiapterin and 800 μM 13C9,15N-Phenylalanine for 4 hours; 13C-Tyrosine by LC-MS; average where tested multiple times. The procedure, abridged:
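Puromycin-selected A375 line, lentiviral hPAH R408W; cmpd 24 h, 37 °C, 5% CO2, 0.5% DMSO; then 20 μM sepiapterin + 800 μM 13C9,15N-Phe, 4 h; media extracted in 80% MeCN; 13C-Tyr by LC-MS; AC50 from 10-pt curves.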
As for `CC(C)(O)c1nc(C(F)F)c(C(=O)N2CCc3[nH]cnc3[C@@H]2c2nc3ccc(F)cc3o2)o1` [Example 188, (R)-(4-(difluoromethyl)-2-(2-hydroxypropan-2-yl)oxazol-5-yl)(4-(6-fluorobenzo[d]oxazol-2-yl)-6,7-dihydro-1H-imidazo[4,5-c]pyridin-5(4H)-yl)methanone], the AC50 lay in the range of 1 to 5 µM. Consider `CC(F)(F)c1ncoc1C(=O)N1CCc2[nH]cnc2[C@@H]1c1nc2cc(F)ccc2o1` [Example 154, (R)-(4-(1,1-difluoroethyl)oxazol-5-yl)(4-(5-fluorobenzo[d]oxazol-2-yl)-6,7-dihydro-1H-imidazo[4,5-c]pyridin-5(4H)-yl)methanone], for which the AC50 lay in the range of 1 to 5 µM.

On to `COc1cccc2oc([C@@H]3c4nc[nH]c4CCN3C(=O)c3oc(C(C)(C)O)nc3C(F)F)nc12` [Example 427, (S)-(4-(difluoromethyl)-2-(2-hydroxypropan-2-yl)oxazol-5-yl)(4-(4-methoxybenzo[d]oxazol-2-yl)-6,7-dihydro-1H-imidazo[4,5-c]pyridin-5(4H)-yl)methanone], for which the AC50 is no more than 0.5 µM. Take `O=C(c1nnc(-c2cnccn2)o1)N1CCc2[nH]cnc2[C@@H]1c1nc2cc(F)ccc2o1` [Example 627, (R)-(4-(5-fluorobenzo[d]oxazol-2-yl)-6,7-dihydro-1H-imidazo[4,5-c]pyridin-5(4H)-yl)(5-(pyrazin-2-yl)-1,3,4-oxadiazol-2-yl)methanone]: the half-maximal activity concentration (AC50) is 1 to 5 µM. Regarding `C[C@H](O)c1nc(C(F)F)c(C(=O)N2CCc3[nH]cnc3[C@H]2c2nc3cccc(F)c3o2)o1` [Example 243, (4-(difluoromethyl)-2-((S)-1-hydroxyethyl)oxazol-5-yl)((S)-4-(7-fluorobenzo[d]oxazol-2-yl)-6,7-dihydro-1H-imidazo[4,5-c]pyridin-5(4H)-yl)methanone], the AC50 is no more than 0.5 µM.

Take `CC(O)c1nc(Cl)c(C(=O)N2CCc3[nH]cnc3[C@H]2c2nc3cc(F)ccc3o2)o1` (single isomer, unassigned) [Example 235]: the AC50 fell in the range of 1 to 5 µM. Turning to `CN1CCN(c2cn3ncc(C(=O)N4CCc5[nH]cnc5[C@@H]4c4nc5cc(F)ccc5o4)c3cc2Cl)CC1` [Example 182, (R)-(5-chloro-6-(4-methylpiperazin-1-yl)pyrazolo[1,5-a]pyridin-3-yl)(4-(5-fluorobenzo[d]oxazol-2-yl)-6,7-dihydro-1H-imidazo[4,5-c]pyridin-5(4H)-yl)methanone], the AC50 was in the range of 1 to 5 µM. As for `O=C(c1nnc(-c2ccn(C(F)F)n2)o1)N1CCc2[nH]cnc2[C@@H]1c1nc2cccc(F)c2o1` [Example 861, (R)-(5-(1-(difluoromethyl)-1H-pyrazol-3-yl)-1,3,4-oxadiazol-2-yl)(4-(7-fluorobenzo[d]oxazol-2-yl)-6,7-dihydro-1H-imidazo[4,5-c]pyridin-5(4H)-yl)methanone], the half-maximal activity concentration (AC50) was 0.5 to 1 µM. `O=C(c1cnn(CC(F)(F)F)c1C(F)F)N1CCc2[nH]cnc2[C@H]1c1nc2cc(F)ccc2o1` [Example 183, (S)-(5-(difluoromethyl)-1-(2,2,2-trifluoroethyl)-1H-pyrazol-4-yl)(4-(5-fluorobenzo[d]oxazol-2-yl)-6,7-dihydro-1H-imidazo[4,5-c]pyridin-5(4H)-yl)methanone]: the AC50 lay in the range of 0.5 to 1 µM. The same measure, in the same setting: to `CC(C)(O)c1nc(C(F)F)c(C(=O)N2CCc3[nH]cnc3[C@H]2c2nc3ccccc3o2)o1` [Example 470, (S)-(4-(benzo[d]oxazol-2-yl)-6,7-dihydro-1H-imidazo[4,5-c]pyridin-5(4H)-yl)(4-(difluoromethyl)-2-(2-hydroxypropan-2-yl)oxazol-5-yl)methanone] belongs no more than 0.5 µM. With `Cn1nccc1-c1nnc(C(=O)N2CCc3[nH]cnc3[C@@H]2c2nc3cc(F)ccc3o2)o1` [Example 132, (R)-(4-(5-fluorobenzo[d]oxazol-2-yl)-6,7-dihydro-1H-imidazo[4,5-c]pyridin-5(4H)-yl)(5-(1-methyl-1H-pyrazol-5-yl)-1,3,4-oxadiazol-2-yl)methanone], the concentration at half-maximal activity (AC50) was in the range of 1 to 5 µM.

For the compound `COc1cccc2oc([C@@H]3c4nc[nH]c4CCN3C(=O)c3nnc(-c4cnn(C)c4)o3)nc12` [Example 626, (S)-(4-(4-methoxybenzo[d]oxazol-2-yl)-6,7-dihydro-1H-imidazo[4,5-c]pyridin-5(4H)-yl)(5-(1-methyl-1H-pyrazol-4-yl)-1,3,4-oxadiazol-2-yl)methanone], the AC50 was no more than 0.5 µM. For the compound `O=C(c1oc(-c2cccnc2)nc1C(F)F)N1CCc2[nH]cnc2[C@@H]1c1nc2cc(F)ccc2o1` [Example 419, (R)-(4-(difluoromethyl)-2-(pyridin-3-yl)oxazol-5-yl)(4-(5-fluorobenzo[d]oxazol-2-yl)-6,7-dihydro-1H-imidazo[4,5-c]pyridin-5(4H)-yl)methanone], the concentration at half-maximal activity (AC50) fell in the range of 0.5 to 1 µM. Take `O=C(c1ocnc1C(F)F)N1CCc2[nH]cnc2[C@@H]1c1nc2cc(C(F)(F)F)ccc2o1` [Example 330, (R)-(4-(difluoromethyl)oxazol-5-yl)(4-(5-(trifluoromethyl)benzo[d]oxazol-2-yl)-6,7-dihydro-1H-imidazo[4,5-c]pyridin-5(4H)-yl)methanone]: the AC50 was no more than 0.5 µM. Same read-out and setting: as for `Cc1nc(-c2ccn(C)n2)oc1C(=O)N1CCc2[nH]cnc2[C@H]1c1nc2cc(F)ccc2o1` [Example 825, (S)-(4-(5-fluorobenzo[d]oxazol-2-yl)-6,7-dihydro-1H-imidazo[4,5-c]pyridin-5(4H)-yl)(4-methyl-2-(1-methyl-1H-pyrazol-3-yl)oxazol-5-yl)methanone], the figure is 1 to 5 µM. The same measure, in the same setting: as for `O=C(CC1(O)CCC1)N1CCc2[nH]cnc2[C@H]1c1nc2cc(F)ccc2o1` [Example 55, (S)-1-(4-(5-fluorobenzo[d]oxazol-2-yl)-6,7-dihydro-1H-imidazo[4,5-c]pyridin-5(4H)-yl)-2-(1-hydroxycyclobutyl)ethanone], the figure is 0.5 to 1 µM. Consider `O=C(c1cnc(-c2ccccn2)s1)N1CCc2[nH]cnc2[C@@H]1c1nc2cc(F)ccc2o1` [Example 6, (R)-(4-(5-fluorobenzo[d]oxazol-2-yl)-6,7-dihydro-1H-imidazo[4,5-c]pyridin-5(4H)-yl)(2-(pyridin-2-yl)thiazol-5-yl)methanone], for which the AC50 is 1 to 5 µM. Take `CC(C)(O)c1nc(C(F)F)c(C(=O)N2CCc3[nH]cnc3[C@H]2c2nc3cccc(F)c3o2)o1` [Example 193, (S)-(4-(difluoromethyl)-2-(2-hydroxypropan-2-yl)oxazol-5-yl)(4-(7-fluorobenzo[d]oxazol-2-yl)-6,7-dihydro-1H-imidazo[4,5-c]pyridin-5(4H)-yl)methanone]: the AC50 was no more than 0.5 µM. Same read-out and setting: as for `O=C(c1nnc(-c2ccc(F)cc2F)o1)N1CCc2[nH]cnc2[C@@H]1c1nc2cc(F)ccc2o1` [Example 83, (R)-(5-(2,4-difluorophenyl)-1,3,4-oxadiazol-2-yl)(4-(5-fluorobenzo[d]oxazol-2-yl)-6,7-dihydro-1H-imidazo[4,5-c]pyridin-5(4H)-yl)methanone], the figure is 1 to 5 µM. Take `O=C(c1nnc(-c2ccccn2)o1)N1CCc2[nH]cnc2[C@H]1c1nc2ccc(F)cc2o1` [Example 303, (S)-(4-(6-fluorobenzo[d]oxazol-2-yl)-6,7-dihydro-1H-imidazo[4,5-c]pyridin-5(4H)-yl)(5-(pyridin-2-yl)-1,3,4-oxadiazol-2-yl)methanone]: the AC50 was no more than 0.5 µM.

As for `Cn1cnc(-c2nc(C(F)F)c(C(=O)N3CCc4[nH]cnc4[C@H]3c3nc4cccc(F)c4o3)o2)c1` [Example 892, (S)-(4-(difluoromethyl)-2-(1-methyl-1H-imidazol-4-yl)oxazol-5-yl)(4-(7-fluorobenzo[d]oxazol-2-yl)-1,4,6,7-tetrahydro-5H-imidazo[4,5-c]pyridin-5-yl)methanone], the AC50 is no more than 0.5 µM.

Consider `O=C(CC1CC1)N1CCc2[nH]cnc2[C@H]1c1nc2cc(F)ccc2o1` [Example 37, (S)-2-cyclopropyl-1-(4-(5-fluorobenzo[d]oxazol-2-yl)-6,7-dihydro-1H-imidazo[4,5-c]pyridin-5(4H)-yl)ethanone], for which the AC50 was in the range of 1 to 5 µM.

The test is the same for the next values; noted with them: A375 cells expressing R408W PAH; 24 hrs with compound, then 20 μM sepiapterin and 800 μM 13C9,15N-Phenylalanine for 4 hours; 13C-Tyrosine by LC-MS; average where tested multiple times.
For the compound `COc1ccc2oc(C3c4nc[nH]c4CCN3C(=O)c3cnco3)nc2c1` (centres unmarked), the AC50 was in the range of 1 to 5 µM. Same read-out and setting: to `O=C(c1cnco1)N1CCc2[nH]cnc2C1c1nc2cc(F)ccc2o1` (centres unmarked) belongs no less than 5 µM.

As for `Cn1nc(C(F)(F)F)nc1C(=O)N1CCc2[nH]cnc2C1c1nc2ccc(F)cc2o1` (centres unmarked), the AC50 is no less than 5 µM.

Take `COCc1ncc(C(=O)N2CCc3[nH]cnc3C2c2nc3cc(F)ccc3o2)o1` (centres unmarked): the AC50 lay within 1 to 5 µM. Same read-out and setting: to `Cc1nc(C2(O)CCC2)oc1C(=O)N1CCc2[nH]cnc2C1c1nc2cc(F)ccc2o1` (centres unmarked) belongs no less than 5 µM. As for `Cc1nc(C2(O)CC2)oc1C(=O)N1CCc2[nH]cnc2C1c1nc2cc(F)ccc2o1` (centres unmarked), the AC50 was 1 to 5 µM. Take `O=C(c1nnc(-c2cn[nH]c2)o1)N1CCc2[nH]cnc2C1c1nc2c(F)cccc2o1` (centres unmarked): the AC50 is 1 to 5 µM.

For the compound `Cn1ncnc1C(=O)N1CCc2[nH]cnc2C1c1nc2ccccc2o1` (centres unmarked), the AC50 fell in the range of 1 to 5 µM. As for `CC(C)(F)c1nnc(C(=O)N2CCc3[nH]cnc3C2c2nc3cc(F)ccc3o2)o1` (centres unmarked), the AC50 lay in the range of 1 to 5 µM. Turning to `Cn1cncc1-c1nnc(C(=O)N2CCc3[nH]cnc3C2c2nc3cc(F)ccc3o2)o1` (centres unmarked), the AC50 is no less than 5 µM.
